Results reported in paper PMC10311661, “In Silico Discovery of 5′-Modified 7-Deoxy-7-ethynyl-4′-thioadenosine as a HASPIN Inhibitor and Its Synergistic Anticancer Effect with the PLK1 Inhibitor” (ACS Central Science, 2023).

What was measured:
Assay in all cases: KINOMEscan (scanMAX) competition binding at […], less than […] of control
Details in all cases: read-out: % of control at 100 nM
[1] = biological target: CLK2 (Homo sapiens, UniProt P49760)
[2] = biological target: DYRK1A (Homo sapiens, UniProt Q13627)
[3] = biological target: T1, MEK5 (Homo sapiens, UniProt Q13163)
T1 construct: gene MAP2K5
T1 sequence (Q13163 1-448): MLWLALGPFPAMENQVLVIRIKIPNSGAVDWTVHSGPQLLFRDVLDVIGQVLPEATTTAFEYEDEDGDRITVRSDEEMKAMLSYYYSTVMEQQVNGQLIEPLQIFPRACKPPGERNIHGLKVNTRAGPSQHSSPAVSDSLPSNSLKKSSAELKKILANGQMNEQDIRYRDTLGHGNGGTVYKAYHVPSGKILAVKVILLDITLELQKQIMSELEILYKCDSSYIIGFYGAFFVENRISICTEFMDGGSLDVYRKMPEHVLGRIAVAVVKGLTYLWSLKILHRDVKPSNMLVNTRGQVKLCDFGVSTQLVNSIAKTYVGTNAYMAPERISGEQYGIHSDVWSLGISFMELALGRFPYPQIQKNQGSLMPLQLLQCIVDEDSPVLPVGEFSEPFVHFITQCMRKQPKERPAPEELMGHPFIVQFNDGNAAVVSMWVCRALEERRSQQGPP

Measured: remaining binding at 0.1 µM

Chain of CLK2 (P49760 whole entry): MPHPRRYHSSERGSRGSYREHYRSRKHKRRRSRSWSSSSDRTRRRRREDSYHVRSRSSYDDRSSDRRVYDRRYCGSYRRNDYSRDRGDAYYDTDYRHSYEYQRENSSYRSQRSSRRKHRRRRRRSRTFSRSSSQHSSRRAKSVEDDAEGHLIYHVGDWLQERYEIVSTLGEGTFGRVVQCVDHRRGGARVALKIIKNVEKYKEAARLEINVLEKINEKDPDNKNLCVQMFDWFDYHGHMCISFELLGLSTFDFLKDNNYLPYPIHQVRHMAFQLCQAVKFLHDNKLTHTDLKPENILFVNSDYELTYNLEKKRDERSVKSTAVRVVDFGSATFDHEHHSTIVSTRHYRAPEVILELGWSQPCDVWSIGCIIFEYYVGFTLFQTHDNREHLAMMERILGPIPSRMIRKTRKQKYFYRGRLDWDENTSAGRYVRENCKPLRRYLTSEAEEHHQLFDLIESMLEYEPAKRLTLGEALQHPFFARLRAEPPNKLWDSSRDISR

C#Cc1cn([C@@H]2S[C@H](CN=[N+]=[N-])[C@@H](O)[C@H]2O)c2ncnc(N)c12 [compound 7, LJ4827]
< 1%: all assays above
